# How the values were obtained:
# [1] = tested on: SMN2 minigene mRNA (SMN2-A minigene construct); assay: SMN2 minigene mRNA splicing RT-qPCR assay in cultured cells; type: cell-based, human; conditions: for inclusion of exon 7 of SMN2 into mRNA / SMN2 minigene FL mRNA relative to vehicle control: HEK293H cells with SMN2-A minigene, 24 hr; for inclusion of exon 7 of SMN2 into mRNA: relative to untreated cells (FIG. 3); for SMN2 minigene FL mRNA relative to vehicle control: rising concentrations, RT-qPCR (FIG. 3); for EC (1.5-fold): Homo sapiens, HEK293-H, HEK293H cells stably transfected with SMN2-A minigene, 24 hours, 7-point concentration data, concentration giving 1.5-fold SMN2 full length mRNA relative to vehicle-treated cells, read-out: EC1.5x for production of full length SMN2 mRNA
# In short: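 Full-length SMN2 minigene mRNA, measured by exon 7/luciferase-specific RT-qPCR that excludes endogenous SMN1/SMN2, was normalized to GAPDH and expressed relative to vehicle-treated cells via modified ΔΔCt. Stably transfected HEK293H cells received compound (7-point, 3.16-fold series, duplicates) for 24 h at 37 °C.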
# [2] = tested on: SMN2 full length and Δ7 mRNA; assay: Endogenous SMN2 mRNA end-point semi-quantitative RT-PCR splicing assay in cultured cells (GM03813); type: cell-based, human; conditions: Type 1 SMA patient fibroblasts GM03813, increasing concentrations, 24 hr, agarose gel (FIG. 5)
# Description: The endpoint reverse transcription-PCR splicing assay is used to visualize and quantify the levels of the SMN2 full length and Δ7 mRNA in primary cells and cell lines containing the SMN2 gene treated with a test compound.
# GM03813 SMA patient cells (5,000 cells/well) are seeded in 200 μL of cell culture medium (DMEM plus 10% FBS) in 96-well flat-bottom plates and the plate is immediately swirled to ensure proper dispersal of cells, forming an even monolayer of cells. Cells are allowed to attach for at least 4-6 hrs. Test compounds are serially diluted 3.16-fold in 100% DMSO to generate a 7-point concentration curve. A solution of test compound (1 μL, 200× in DMSO) is added to each test well and 1 μL DMSO is added to each control well. The plate is incubated for 24 hrs in a cell culture incubator (37° C., 5% CO2, 100% relative humidity). The cells are then lysed in Cells-To-Ct lysis buffer and the lysate is stored at 80° C.
# SMN FL and Δ7 mRNA are identified using the following primers in Table 6. These primers hybridize to a nucleotide sequence in exon 6 (SMN Forward C, SEQ ID NO. 11) (nucleotide 43 to nucleotide 63) and exon 8 (SMN Reverse C, SEQ ID NO. 12) (nucleotide 51 to nucleotide 73) common to human SMN1 and SMN2 mRNA. Since the SMA patient cells used in Example 4 contain only the SMN2 gene, RT-PCR can visualize and quantify only SMN2 full-length and SMN2 Δ7 mRNA.
# To synthesize cDNA, 5 μL of lysate, 4 μL of 5× iScript reaction mix, 1 μL of reverse transcriptase, and 10 μL of water are combined and incubated 5 min at 25° C. followed by 30 min at 42° C., followed by 5 min at 85° C. The cDNA solution is stored at −20° C.
# To perform endpoint PCR, 5 μL of cDNA, 0.2 μL of 100 μM forward primer, 0.2 μL of 100 μM reverse primer, and 22.5 μL of polymerase super mix are combined in a 96 well semiskirted PCR plate. PCR is carried out at the following temperatures for the indicated time: Step 1: 94° C. (2 min), Step 2: 94° C. (30 sec), Step 3: 55° C. (30 sec), Step 4: 68° C. (1 min), then repeat Steps 2 to 4 for a total of 33 cycles, then hold at 4° C.
# 10 μL of each PCR sample is electrophoretically separated on a 2% agarose E-gel for 14 minutes stained with double-stranded DNA (dsDNA) staining reagents (e.g., ethidium bromide) and visualized using a gel imager.
smiles,measurement,setting,value
"CN1CCN(c2ccc3cc(-c4nc5c(Cl)cccc5s4)c(=O)oc3n2)CC1 [Cpd 5, 3-(4-chloro-1,3-benzothiazol-2-yl)-7-(4-methylpiperazin-1-yl)-2H-pyrano[2,3-b]pyridin-2-one]",inclusion of exon 7 of SMN2 into mRNA,[1],fully restored exon 7 inclusion
same,SMN2 minigene FL mRNA relative to vehicle control,[1],increased SMN2 minigene FL mRNA at low concentrations
same,EC (1.5-fold),[1],0.1 to 0.3 µM
same,SMN2 FL mRNA (gel band),[2],progressively more SMN2 FL mRNA
same,SMN2 Δ7 mRNA (gel band),[2],less SMN2 Δ7 mRNA
"Cc1ccc2nc(-c3cc4ccc(N5CCN(C)CC5)nc4oc3=O)cn2c1 [Cpd 27, 3-(6-methylimidazo[1,2-a]pyridin-2-yl)-7-(4-methylpiperazin-1-yl)-2H-pyrano[2,3-b]pyridin-2-one]",inclusion of exon 7 of SMN2 into mRNA,[1],fully restored exon 7 inclusion
same,SMN2 minigene FL mRNA relative to vehicle control,[1],increased SMN2 minigene FL mRNA at low concentrations
same,EC (1.5-fold),[1],0.1 to 0.3 µM
same,SMN2 FL mRNA (gel band),[2],progressively more SMN2 FL mRNA
same,SMN2 Δ7 mRNA (gel band),[2],less SMN2 Δ7 mRNA

# Source: patent US9371336B2, “Compounds for treating spinal muscular atrophy” (PTC Therapeutics Inc., priority 2012, dated 2016)
